# Calls of active or inactive are those of the source. The calls are words filed in the database; no cut-off is given here.
# How the values were obtained:
# [1] = target: T1, 5'-AMP-activated protein kinase (Mus musculus) (UniProt Q5EG47+Q8BRK8+Q6PAM0+O54950+Q91WG5+Q9R078+Q8BGM7); experiment: Activation of AMPK in mouse 3T3L1 adipocytes in DMI differentiation media assessed as decrease in C/EBPalpha expression at 1.5 ug/ml after 6 days in presence of AMPK inhibitor compound C by Western blot analysis; format: cell-based; details: 3T3-L1
# 3T3-L1 [2] = experiment: Anti-adipogenic activity in mouse 3T3L1 adipocytes assessed as inhibition of insulin/dexamethasone/isobutylmethylxanthine induced-triglyceride accumulation at 1.5 ug/ml treated every 2 days following compound washout for 8 days by ELISA relative to control; format: functional
# [3] = target: T1, 5'-AMP-activated protein kinase (Mus musculus); experiment: Activation of AMPK in mouse 3T3L1 adipocytes in DMI differentiation media assessed as decrease in C/EBPbeta expression after 4 to 8 days by Western blot analysis; format: cell-based; details: 3T3-L1
# 3T3-L1 [4] = experiment: Induction of morphological changes in mouse 3T3L1 cells; format: cell-based
# [5] = target: T1, 5'-AMP-activated protein kinase (Mus musculus); experiment: Activation of AMPK in mouse 3T3L1 adipocytes in DMI differentiation media at 0.4 to 1.5 ug/ml after 8 days by Western blot analysis; format: cell-based; details: 3T3-L1
# [6] = target: T1, 5'-AMP-activated protein kinase (Mus musculus); experiment: Activation of AMPK in mouse 3T3L1 adipocytes in DMI differentiation media assessed as decrease in PPARgamma expression at 1.5 ug/ml after 6 days in presence of AMPK inhibitor compound C by Western blot analysis; format: cell-based; details: 3T3-L1
# [7] = target: T1, 5'-AMP-activated protein kinase (Mus musculus); experiment: Activation of AMPK in mouse 3T3L1 adipocytes in DMI differentiation media assessed as decrease in C/EBPbeta mRNA expression after 4 days by RP-PCR analysis; format: cell-based; details: 3T3-L1
# [8] = target: T1, 5'-AMP-activated protein kinase (Mus musculus); experiment: Activation of AMPK in mouse 3T3L1 adipocytes in DMI differentiation media assessed as increase in ACC phosphorylation after 4 to 8 days by Western blot analysis; format: cell-based; details: 3T3-L1
# [9] = target: T1, 5'-AMP-activated protein kinase (Mus musculus); experiment: Activation of AMPK in mouse 3T3L1 adipocytes in DMI differentiation media assessed as decrease in aP2 expression after 4 to 8 days by Western blot analysis; format: cell-based; details: 3T3-L1
# [10] = target: T1, 5'-AMP-activated protein kinase (Mus musculus); experiment: Activation of AMPK phosphorylation at […] residue in mouse 3T3L1 adipocytes in DMI differentiation media after 4 to 8 days by Western blot analysis; format: cell-based; details: 3T3-L1
# [11] = target: T1, 5'-AMP-activated protein kinase (Mus musculus); experiment: Activation of AMPK in mouse 3T3L1 adipocytes in DMI differentiation media assessed as decrease in FAS expression after 4 to 8 days by Western blot analysis; format: cell-based; details: 3T3-L1
# [12] = target: T1, 5'-AMP-activated protein kinase (Mus musculus); experiment: Activation of AMPK in mouse 3T3L1 adipocytes in DMI differentiation media assessed as decrease in C/EBPalpha mRNA expression after 4 days by RP-PCR analysis; format: cell-based; details: 3T3-L1
# [13] = target: T1, 5'-AMP-activated protein kinase (Mus musculus); experiment: Activation of AMPK in mouse 3T3L1 adipocytes in DMI differentiation media assessed as increase in ACC phosphorylation in presence of AMPK inhibitor compound C by Western blot analysis; format: cell-based; details: 3T3-L1
# [14] = target: AMP-activated protein kinase, AMPK (Homo sapiens) (UniProt P54646+O43741+P54619+Q9UGJ0+Q9Y478+Q13131+Q9UGI9); experiment: Activation of AMPK (unknown origin) at 0.4 to 1.5 ug/ml; format: protein-complex assay
# [15] = target: T1, 5'-AMP-activated protein kinase (Mus musculus); experiment: Activation of AMPK in mouse 3T3L1 adipocytes in DMI differentiation media at 1.5 ug/ml after 24 hrs in presence of AMPK inhibitor compound C by Western blot analysis; format: cell-based; details: 3T3-L1
# [16] = target: T1, 5'-AMP-activated protein kinase (Mus musculus); experiment: Activation of AMPK in mouse 3T3L1 adipocytes in DMI differentiation media assessed as decrease in C/EBPalpha expression after 4 to 8 days by Western blot analysis; format: cell-based; details: 3T3-L1
# [17] = target: T1, 5'-AMP-activated protein kinase (Mus musculus); experiment: Activation of AMPK in mouse 3T3L1 adipocytes in DMI differentiation media assessed as decrease in C/EBPbeta expression at 1.5 ug/ml after 24 hrs in presence of AMPK inhibitor compound C by Western blot analysis; format: cell-based; details: 3T3-L1
# [18] = target: T1, 5'-AMP-activated protein kinase (Mus musculus); experiment: Activation of AMPK phosphorylation at […] residue in mouse 3T3L1 adipocytes in DMI differentiation media in presence of AMPK inhibitor compound C by Western blot analysis; format: cell-based; details: 3T3-L1
# 3T3-L1 [19] = experiment: Anti-adipogenic activity in mouse 3T3L1 adipocytes assessed as inhibition of insulin/dexamethasone/isobutylmethylxanthine induced-triglyceride accumulation at 0.4 ug/ml treated every 2 days following compound washout for 8 days by ELISA relative to control; format: functional
# 3T3-L1 [20] = experiment: Anti-adipogenic activity in mouse 3T3L1 preadipocytes assessed as inhibition of insulin/dexamethasone/isobutylmethylxanthine induced-lipid accumulation treated every 2 days following compound washout for 8 days by Oil-red O staining based assay; format: functional, cell-based
# 3T3-L1 [21] = experiment: Anti-adipogenic activity in mouse 3T3L1 preadipocytes assessed as inhibition of insulin/dexamethasone/isobutylmethylxanthine induced-cell differentiation treated every 2 days following compound washout for 8 days by Oil-red O staining based assay; format: functional
# 3T3-L1 [22] = experiment: Cytotoxicity against mouse 3T3L1 cells assessed as effect on cell viability up to 1.5 ug/ml after 4 to 8 days by MTT assay; format: cell-based
# [23] = target: T1, 5'-AMP-activated protein kinase (Mus musculus); experiment: Activation of AMPK in mouse 3T3L1 adipocytes in DMI differentiation media assessed as decrease in LPL expression after 4 to 8 days by Western blot analysis; format: cell-based; details: 3T3-L1
# [24] = target: T1, 5'-AMP-activated protein kinase (Mus musculus); experiment: Activation of AMPK in mouse 3T3L1 adipocytes in DMI differentiation media assessed as decrease in PPARgamma mRNA expression after 4 days by RP-PCR analysis; format: cell-based; details: 3T3-L1
# 3T3-L1 [25] = experiment: Effect on total AMPK expression in mouse 3T3L1 adipocytes in DMI differentiation media at 0.4 to 1.5 ug/ml after 4 to 8 days by Western blot analysis; format: ADME, cell-based
# [26] = target: T1, 5'-AMP-activated protein kinase (Mus musculus); experiment: Activation of AMPK in mouse 3T3L1 adipocytes in DMI differentiation media assessed as decrease in PPARgamma expression after 4 to 8 days by Western blot analysis; format: cell-based; details: 3T3-L1
smiles,measurement,setting,value
C=C(C)[C@H]1Cc2c(ccc3c2O[C@@H]2COc4cc(OC)c(OC)cc4[C@@H]2[C@@]32CO2)O1 [ROTENOISIN A],Activity,[1],inactive
same,inhibition at 1.5 µg/mL,3T3-L1 [2],57%
same,Activity,[3],Dose-dependent effect
same,Activity,3T3-L1 [4],Non-Toxic
same,Activity,[5],Active
same,Activity,[6],inactive
same,Activity,[7],Dose-dependent effect
same,Activity,[8],Dose-dependent effect
same,Activity,[9],Dose-dependent effect
same,Activity,[10],Dose-dependent effect
same,Activity,[11],Dose-dependent effect
same,Activity,[12],Dose-dependent effect
same,Activity,[13],inactive
same,Activity,[14],inactive
same,Activity,[15],inactive
same,Activity,[16],Dose-dependent effect
same,Activity,[17],inactive
same,Activity,[18],inactive
same,inhibition at 0.4 µg/mL,3T3-L1 [19],23%
same,inhibition,3T3-L1 [20],Dose-dependent effect
same,inhibition,3T3-L1 [21],Dose-dependent effect
same,Activity,3T3-L1 [22],Non-Toxic
same,Activity,[23],Dose-dependent effect
same,Activity,[24],Dose-dependent effect
same,Activity,3T3-L1 [25],Non-Toxic
same,Activity,[26],Dose-dependent effect

# From ChEMBL document CHEMBL4308866, “Rotenoisin A is a novel anti-adipogenic compound” (Bioorg Med Chem Lett, 2019)
